The results in this text go back to article PMC8112869, “Therapeutic inhibition of keratinocyte TRPV3 sensory channel by local anesthetic dyclonine” (eLife, 2021).

The target of the experiment is T1, endogenous TRPV3 channels in mouse keratinocytes (Mus musculus, UniProt Q8K424).
T1 construct: endogenous in cells; host or cells: primary epidermal keratinocytes of newborn WT C57B/6 mice
T1 sequence (Q8K424 1-791): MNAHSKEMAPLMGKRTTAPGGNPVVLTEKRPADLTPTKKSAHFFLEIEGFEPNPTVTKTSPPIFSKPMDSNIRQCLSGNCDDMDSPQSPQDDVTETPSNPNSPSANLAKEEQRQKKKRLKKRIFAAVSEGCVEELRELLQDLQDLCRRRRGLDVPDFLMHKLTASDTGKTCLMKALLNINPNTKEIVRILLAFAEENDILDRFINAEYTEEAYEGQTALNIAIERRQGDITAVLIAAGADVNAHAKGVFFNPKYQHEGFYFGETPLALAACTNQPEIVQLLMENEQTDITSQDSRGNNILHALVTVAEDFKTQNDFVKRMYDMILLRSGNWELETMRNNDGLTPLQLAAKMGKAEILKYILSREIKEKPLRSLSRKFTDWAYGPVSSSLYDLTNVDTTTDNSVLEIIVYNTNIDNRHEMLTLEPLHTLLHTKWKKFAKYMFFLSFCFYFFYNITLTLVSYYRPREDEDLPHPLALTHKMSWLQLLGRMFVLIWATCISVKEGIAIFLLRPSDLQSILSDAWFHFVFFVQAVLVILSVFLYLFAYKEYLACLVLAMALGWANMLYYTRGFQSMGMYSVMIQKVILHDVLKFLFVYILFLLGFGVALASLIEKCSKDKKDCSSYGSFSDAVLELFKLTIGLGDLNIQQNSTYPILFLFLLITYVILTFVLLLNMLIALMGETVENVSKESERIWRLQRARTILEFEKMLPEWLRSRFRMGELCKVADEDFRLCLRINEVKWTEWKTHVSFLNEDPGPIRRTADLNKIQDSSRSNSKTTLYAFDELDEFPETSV
Nature of the experiment: Whole-cell recording of 2-APB-evoked TRPV3 currents in primary mouse epidermal keratinocytes. It is filed as cell-based. The settings on record: for TRPV3 currents, of control level: 300 μM 2-APB, –60 mV. How it is done: The animal protocol used in this study was approved by the Institutional Animal Care and Use Committee of Wuhan University. Primary mouse keratinocytes were prepared according to the method previously described ([Luo et al., 2012]; [Pirrone et al., 2005]). Briefly, newborn WT C57B/6 mice (postnatal days 1–3) were deeply anaesthetized and decapitated and then soaked in 10% povidone-iodine, 70% ethanol, and phosphate-buffered saline (PBS) for 5 min, respectively. The skin on the back was removed and rinsed with pre-cold sterile PBS in a 100 mm Petri dish and transferred into a 2 ml tube filled with pre-cold digestion buffer containing 4 mg/ml dispase II and incubated overnight at 4°C. After treatment with dispase II for 12–18 hr, the epidermis was gently peeled off from dermis and collected. Keratinocytes were dispersed by gentle scraping and flushing with KC growth medium (Invitrogen). The resulting suspension of single cells was collected by centrifuge, and cells were seeded onto coverslips pre-coated with poly-L-lysine and maintained in complete keratinocyte serum-free growth medium (Invitrogen). Cell culture medium was refreshed every two days. Patch-clamp recordings were carried out 48 hr after plating.
Conventional whole-cell and excised patch-clamp recording methods were used. For the recombinant expressing system, green fluorescent EGFP was used as a surface marker for gene expression. Recording pipettes were pulled from borosilicate glass capillaries (World Precision Instruments) and fire-polished to a resistance between 2 and 4 MΩ when filled with internal solution containing (in mM) 140 CsCl, 2.0 MgCl2, 5 EGTA, and 10 HEPES, pH 7.4 (adjusted with CsOH). Bath solution contained (in mM): 140 NaCl, 5 KCl, 3 EGTA, and 10 HEPES, pH 7.4 adjusted with NaOH. For recordings in keratinocytes, the bath saline consisted of (in mM) 140 NaCl, 5 KCl, 2 MgCl2, 2 CaCl2, 10 glucoses, and 10 HEPES, pH 7.4 adjusted with NaOH, and the pipette solution contained (in mM) 140 CsCl, 5 EGTA, and 10 HEPES, pH 7.3 adjusted with CsOH. For single-channel recordings, the pipette solution and bath solution were symmetrical and contained (in mM) 140 NaCl, 5 KCl, 3 EGTA, and 10 HEPES, pH 7.4. Isolated cells were voltage clamped and held at –60 mV using an EPC10 amplifier with the Patchmaster software (HEKAElectronics, Lambrecht, Germany). For a subset of recordings, currents were amplified using an Axopatch 200B amplifier (Molecular Devices, Sunnyvale, CA) and recorded through a BNC-2090/MIO acquisition system (National Instruments, Austin, TX) using QStudio developed by Dr. Feng Qin at State University of New York at Buffalo. […] As determined by the conductance tests, the solution around a patch under study was fully controlled by the application of a flow rate of 100 μl/min or greater. […]

With `CCCCOc1ccc(C(=O)CCN2CCCCC2)cc1` [dyclonine], the “TRPV3 currents, of control level” value runs as follows: (5 μM dyclonine) 52% ± 7%; (30 μM dyclonine) 13% ± 0.01%. The 50% inhibitory concentration (IC50) (commonly the concentration that gives 50% inhibition) (300 μM 2-APB-evoked, read-out: IC50 on TRPV3 currents in cultured keratinocytes) was determined as 5.2 ± 0.71 µM. In addition, the “Hill coefficient nH” value (keratinocytes) turned out to be 2.4 ± 0.75.
